Measurements reported in a melting point compilation (Tetko et al.; mined from patent text by program, amines drawn as free bases though some values may be those of a salt).

Compared with `O=C(Nc1ccc(O)cc1[N+](=O)[O-])OCCCl`, `CC1=C(C(=O)O)C(c2cccc([N+](=O)[O-])c2)C(C(=O)OCCC#N)=C(C)N1` (stereo not drawn) is lower in melting point: 170 °C for the first, 131 to 132 °C for the second.

First: Cc1oc(-c2ccccc2)nc1COc1nn(Cc2ccc(Oc3ccccc3)cc2)cc1C(=O)O
Second: CCOP(=O)(OCC)/C(O)=C/c1cn(-c2ccccc2)nc1OCc1ccc(OCc2nc(-c3ccco3)oc2C)c(OC)c1
The melting point of the first is higher: 222 to 223 °C for the first, 147 to 149 °C for the second.

Compared with `CN1C(=O)C2C3CCC(CC3)C2(c2ccc(Cl)c(Cl)c2)C1=O` (stereo not drawn), `CC1CCC2Oc3ccc(Cl)cc3C(=O)N2O1` (stereo not drawn) is higher in melting point: 126 to 134 °C for the first, 210 to 213 °C for the second.

First: CC(C)(C)OC(=O)NCC(=O)Oc1cc2c(c3ccccc13)Nc1ccccc1S2
Second: CCOC(=O)c1cccc2c1Nc1ccc(C(=O)c3ccccc3)cc1N2Cc1ccccc1
The melting point of the first is higher: 175 °C for the first, 134 to 136 °C for the second.

Compared with `CC(C)C(O)(Cc1ccccc1)Cc1ccccc1`, `Clc1cccc(CC[C@H]2CN(Cc3ccccc3)CCN2Cc2ccccc2)c1` is higher in melting point: 52 to 53 °C for the first, 56 to 60 °C for the second.

Compared with `CCCCCCCNC(=O)N(C)c1cccc(-c2ccc(CC(OCC)C(=O)O)cn2)c1` (stereo not drawn), `CCCCCCCCNC(=O)C=CSC(C(=O)c1ccccc1)C(=O)c1cccn1C` (stereo not drawn) is lower in melting point: 140 to 141 °C for the first, 131 to 132 °C for the second.

First: CSc1cccc(Oc2ncc(F)cc2C(=O)N[C@@H]2CCCC[C@H]2CO)c1 (relative stereo)
Second: COc1ccc(C2CCN(C(=O)CC(=O)O)CC2)cc1OC1CCCC1
The melting point of the first is higher: 128 to 129 °C for the first, 122 to 123 °C for the second.

Compared with `COC(=O)CC[C@H](NC(=O)c1ccc(C#Cn2cnc3nc(NC(=O)C(C)(C)C)cc-3c2O)cc1)C(=O)OC`, `COC(=O)CNC(=O)c1cc(C(=O)OC)c(O)c2ncc(Cc3ccc(F)cc3)cc12` is lower in melting point: 280 to 285 °C for the first, 209 to 210 °C for the second.

First: NC(=O)c1cc(C(=O)O)c(O)c2ncc(Cc3ccc(F)cc3)cc12
Second: O=C(O)C(=O)c1ccc(OCCOc2cc3ccccc3cc2O)cc1
The melting point of the first is higher: 265 to 266 °C for the first, 191 to 192 °C for the second.

`Cc1cc(C)c(C)c(-c2cc3cnc(N)nc3nc2NC(=O)NC(C)(C)C)c1C` and `Cc1cc(C)c2c(O)c3c(=O)[nH][nH]c(=O)c3nc2c1` cannot be ordered by melting point: > 300 °C for the first, > 395 °C for the second.

First: C[C@@H]1OCCN(c2cc(N3CCOCC3)nc(-n3c(C(F)F)nc4ccccc43)n2)[C@@H]1C (relative stereo)
Second: O=C(Nc1ccc(OCCN2CCOCC2)c2ccccc12)c1cc(F)cc(N2CCCCCC2)c1
The melting point of the first is higher: 167 to 169 °C for the first, 142 to 144 °C for the second.

First: Cc1cc(-c2cc(C(F)F)n3ncc(C(=O)Nc4nc(C)c(S(N)(=O)=O)s4)c3n2)ccc1C(F)(F)F
Second: Cc1cc(SCc2ccnc3[nH]c(-c4ccc(C(F)(F)F)cc4)nc23)ccc1OCC(=O)O
The melting point of the first is higher: 307 °C for the first, 239 to 241 °C for the second.

Compared with `Cc1ccc2[nH]c3c(c2c1)CC(=O)Nc1cccnc1-3`, `O=C1Cc2cc(NC(=O)c3ccccc3[N+](=O)[O-])ccc2N1` is lower in melting point: > 330 °C for the first, 265 °C for the second.

First: COc1ccc(C(=O)O)c(Oc2ccc(C(F)(F)F)cc2NC(=O)Nc2cc(C(F)(F)F)cc(C(F)(F)F)c2)c1
Second: CCNC(=O)N(c1ccc(C(O)(C(F)(F)F)C(F)(F)F)cc1)S(C)(=O)=O
The melting point of the first is higher: 248 °C for the first, 161 to 164 °C for the second.

First: OC(CCl)(Cc1ccc(Cl)cc1Cl)c1ccc(-c2ccccc2)cc1 (stereo not drawn)
Second: COc1ccc(C(=CC(=O)N2CCOCC2)c2ccc(-c3ccccc3)cc2)cc1OC
The melting point of the first is lower: 84 °C for the first, 127 to 128 °C for the second.

Compared with `Cc1nc2c3c(c(CCl)cn2c1C)CCC(c1ccccc1)C3` (stereo not drawn), `CCc1c2c(nn1C)c(N)nc1ccccc12` is higher in melting point: 155 to 157 °C for the first, 257 to 259 °C for the second.

First: CNC1=NS(=O)(=O)N=C1NCCSCc1csc(N(C)C)n1
Second: O=C(O)Cc1csc(-c2cccc(O)c2)n1
The melting point of the first is higher: 227 to 229 °C for the first, 172 to 174 °C for the second.

Going from `CCN(CC)C(=O)Nc1ccc(Cn2c(=O)n(C3CCCCC3)c3cc(Cl)ccc32)c(OC)c1` to `COc1cc(CNC(=O)c2ccc3c(c2)c(=O)n(Cc2ccccc2)c(=O)n3C)ccc1O`, the melting point falls from 190 °C to 183 °C.

Compared with `NCCC(O)C(C(=O)O)N1CCC1=O` (stereo not drawn), `CC(Nc1ccc2[nH]c(=O)oc2c1)C(=O)N1CCC(Cc2ccccc2)CC1` (stereo not drawn) is lower in melting point: 152 to 154 °C for the first, 91 °C for the second.

First: CCOC(=O)C(C#N)=Cc1ccc(OCCc2nc(-c3ccccc3Cl)oc2C)cc1
Second: CCOC(=O)c1cc(=O)c(-c2ccc(OC)cc2)co1
The melting point of the first is lower: 120 to 121 °C for the first, 121 to 123 °C for the second.

Compared with `Cc1[nH]c(=O)c(C#N)c2c1CC(C)CC2` (stereo not drawn), `CS(=O)(=O)n1ccc2cc3c(cc21)C(C#N)C3` (stereo not drawn) is lower in melting point: > 290 °C for the first, 142 to 144 °C for the second.

Compared with `CC(Oc1ccc2oc3cc(Cl)ccc3c2c1)C(N)=O` (stereo not drawn), `CSc1nnc(C2C(=O)N(C(N)=O)c3ccc(Cl)cc32)o1` (stereo not drawn) is higher in melting point: 185 to 187 °C for the first, 297 to 299 °C for the second.

First: CC(C)(C)OC(=O)N[C@@H]1CN[C@H]2CCO[C@H]21 (relative stereo)
Second: CC(=O)OC1CSC(Sc2ccc(C(F)(F)F)cc2)C(OC(C)=O)C1OC(C)=O (stereo not drawn)
The melting point of the first is lower: 110 to 111 °C for the first, 160 °C for the second.

Compared with `CC(=O)NCCc1coc2ccc(OCC#N)cc12`, `CSC(=NCCN1CCC(c2noc3cc(F)ccc23)CC1)NC#N` is higher in melting point: 72 to 73 °C for the first, 148 to 151 °C for the second.

First: CC1=Cc2c(cccc2-c2cccc3ccccc23)C1
Second: CNC(=O)c1cc2ccccc2c(-c2cccc(I)c2)n1
The melting point of the first is lower: 143 °C for the first, 172 to 174 °C for the second.

First: N#CCn1nnc(NC(=O)C2c3ccccc3Oc3ccccc32)n1
Second: CCCN(C(C)=O)c1cccc(-c2ccc3nnc(C)n3n2)c1
The melting point of the first is higher: 204 to 205 °C for the first, 145 to 149 °C for the second.

Compared with `Oc1cc2c(cc1O)-c1cc3cc(O)c(O)cc3nc1CC2`, `CN(C)c1nc(-c2ccc3c(c2)OCO3)c2cc3c(cc2n1)OCO3` is lower in melting point: > 220 °C for the first, 200 to 206 °C for the second.

First: CN(C)NC(=O)NC(C(=O)O)c1cccs1 (stereo not drawn)
Second: COC(=O)Cc1sc(=O)[nH]c1/C=C/c1ccccc1
The melting point of the first is higher: 208 to 210 °C for the first, 164 °C for the second.

First: CN(c1cccc2cc(C3=NCC(CN4CCS(=O)(=O)CC4)S3)[nH]c12)S(=O)(=O)c1cccs1 (stereo not drawn)
Second: O=C1NC(=O)C(S(=O)(=O)c2ccc3ccccc3n2)S1 (stereo not drawn)
The melting point of the first is higher: 242 °C for the first, 168 to 169 °C for the second.

Compared with `C=CCN1CCC=C(c2ccc(C(C)(C)CCCCCC)cc2O)C1`, `CCCCCCCCC1C=CC(/C(C)=C/c2ccc(C(=O)O)o2)=C2N=C3CCCCC3=C21` (stereo not drawn) is higher in melting point: 109 to 110 °C for the first, 152 to 154 °C for the second.

First: CC(=O)OC1CSC(Oc2cncc(-c3ccoc3)c2)C(OC(C)=O)C1OC(C)=O (stereo not drawn)
Second: COc1ccc(C2CCc3c(OC(C)=O)cc(OC(C)=O)cc3O2)cc1OC(C)=O (stereo not drawn)
The melting point of the first is higher: 127 °C for the first, 106 to 107 °C for the second.

Compared with `Cc1cc(O)c(Oc2ccccc2C#N)cc1-c1ccsc1`, `Cc1ccc(Nc2nc(-c3ccccc3)cs2)nc1` is higher in melting point: 155 to 159 °C for the first, 260 to 264 °C for the second.

Compared with `Cn1ccnc1C=NO`, `CC(=NO)C1CC(Cn2ccnc2)(c2ccc(Cl)cc2)N(C)O1` (stereo not drawn) is higher in melting point: 170 to 172 °C for the first, 214 to 216 °C for the second.

First: O=Cc1ccc(-c2ncc(Cl)cn2)cc1
Second: O=C(O)C1CN(c2ccc(-c3noc(CCl)n3)cc2)C(=O)O1 (stereo not drawn)
The melting point of the first is higher: 186 °C for the first, 178 to 181 °C for the second.

Compared with `O=C1CCCCC1(CCCCCOc1ccccc1)c1ccccc1` (stereo not drawn), `O=C(Nc1ccc2[nH]ncc2c1)N[C@@H](c1ccccc1)[C@@H]1CCCCN1` is higher in melting point: 69 to 72 °C for the first, 147 to 149 °C for the second.

First: CCOC(=O)COc1c(C)c(C(F)(F)F)nc(C(F)(F)F)c1C(=O)OCC
Second: CCOC(=O)c1nc(S(C)(=O)=O)n(C)c(=O)c1OCc1ccccc1
The melting point of the first is lower: 42 to 44 °C for the first, 84 to 85 °C for the second.

First: NC(C(=O)N1CCC(F)C1)C1CCCCC1 (mixture of isomers)
Second: Cc1ccc(C2CCN(C(=O)CCC(=O)c3ccc4c(c3)CN(C)CC4)CC2)cc1
The melting point of the first is higher: > 250 °C for the first, 97 to 99 °C for the second.

First: COc1ccc(-n2c(=O)[nH]c3cc(Cl)cc(Cl)c3c2=O)cc1
Second: COc1ccc2c(c1)C(=O)N(c1ccc3c(c1)cc(C)n3C)C2
The melting point of the first is higher: 294 to 296 °C for the first, 209 to 213 °C for the second.

First: CCCc1ccc(-c2cc(F)c(-c3ccc(CCC)s3)c(F)c2)cc1
Second: Cc1nc(-c2ccc(-c3ccc(C(=O)Nc4ccc(Br)c(OCCN(C)C)c4)cc3)c(C)c2)no1
The melting point of the first is lower: 64 °C for the first, 138 to 140 °C for the second.

Compared with `CNC(=O)N1N=C(c2ccc([N+](=O)[O-])cc2)c2cc(OC)c(Br)cc2CC1C` (stereo not drawn), `O=C(c1ncco1)c1ccc([N+](=O)[O-])cc1Cl` is lower in melting point: 224 to 226 °C for the first, 124 to 125 °C for the second.

Compared with `CNS(=O)(=O)c1ccccc1Nc1nc(Nc2ccc3c(c2)CCCC(=O)N3C)ncc1Cl`, `COc1ccc(CNc2cc(C(c3cc(F)ccc3F)S(=O)(=O)c3ccc(F)cc3)c(Cl)cn2)cc1OC` (stereo not drawn) is lower in melting point: 175 to 177 °C for the first, 158 to 159 °C for the second.

First: CCCC(CCNC(=O)C(C#N)=Cc1ccc(O)c(O)c1)NC(=O)C(C#N)=Cc1ccc(O)c(O)c1 (stereo not drawn)
Second: CCN1C(C(=O)OC)=C(O)c2ccc3ccccc3c2S1(=O)=O
The melting point of the first is higher: 263 °C for the first, 179 °C for the second.

First: Nc1ncc(C2CCN(c3ccc(Cl)cc3)CC2)c(N)n1
Second: Cc1ccc(NC(=O)N(C)C(c2cnc(C(F)F)nc2Cl)C(C)C)cc1 (stereo not drawn)
The melting point of the first is higher: 254 to 255 °C for the first, 135 to 137 °C for the second.

First: Cc1ccc2c(c1)COC21CCN(CCCCCCN2CCC3(CC2)OCc2cc(C)ccc23)CC1
Second: CC1(C)CCC(C)(C)c2cc(-c3ccccc3C=O)ccc21
The melting point of the first is higher: 113 to 116 °C for the first, 85 to 87 °C for the second.

First: COc1cc(C=C[N+](=O)[O-])cc(OC)c1OC
Second: COc1c2occc2c(OC)c2c(=O)cc(N3CCC(C4CCN(c5cc(=O)c6c(OC)c7ccoc7c(OC)c6o5)CC4)CC3)oc12
The melting point of the first is lower: 116 to 118 °C for the first, 126 to 129 °C for the second.

First: Cc1ccccc1NNC1=NCCS1
Second: O=C(Nc1nccs1)c1cnc2ccccc2c1O
The melting point of the first is lower: 126 to 127 °C for the first, 349 to 350 °C for the second.

First: O=C(O)c1ccc(OCCCCCCC2CC2)c(F)c1F
Second: OC1Cc2c(Cl)cccc2Sc2ccc(C(F)(F)F)cc21 (stereo not drawn)
The melting point of the first is lower: 100 to 108 °C for the first, 130 to 132 °C for the second.

First: O=C(c1cccnc1)c1cc(Br)cc(Br)c1
Second: Cc1ccc(Sc2cncc3sc(C=NOCC(=O)O)cc23)cc1
The melting point of the first is lower: 124 to 126 °C for the first, 227 to 230 °C for the second.

First: CCCn1c(CC)c2c3c(cccc31)C1CC(NC(=S)N(CC)CC)CN(C)C1C2 (stereo not drawn)
Second: CC(C)Nc1cc(Cl)nc(Cl)n1
The melting point of the first is higher: 173 to 175 °C for the first, 69 to 70 °C for the second.
